How the values were obtained:
aromatase = molecular target: T1, aromatase (Homo sapiens, UniProt P11511); test: Aromatase inhibition assay in JEG-3 cells ([1β-3H] androstenedione, tritiated water release); type: cell-based; conditions: 1.25 hour incubation, duplicate
T1 construct: JEG-3 which constitutively expresses high amount of aromatase and steroid sulfatase; endogenous in cells; host or cells: JEG-3
T1 sequence (P11511 1-503): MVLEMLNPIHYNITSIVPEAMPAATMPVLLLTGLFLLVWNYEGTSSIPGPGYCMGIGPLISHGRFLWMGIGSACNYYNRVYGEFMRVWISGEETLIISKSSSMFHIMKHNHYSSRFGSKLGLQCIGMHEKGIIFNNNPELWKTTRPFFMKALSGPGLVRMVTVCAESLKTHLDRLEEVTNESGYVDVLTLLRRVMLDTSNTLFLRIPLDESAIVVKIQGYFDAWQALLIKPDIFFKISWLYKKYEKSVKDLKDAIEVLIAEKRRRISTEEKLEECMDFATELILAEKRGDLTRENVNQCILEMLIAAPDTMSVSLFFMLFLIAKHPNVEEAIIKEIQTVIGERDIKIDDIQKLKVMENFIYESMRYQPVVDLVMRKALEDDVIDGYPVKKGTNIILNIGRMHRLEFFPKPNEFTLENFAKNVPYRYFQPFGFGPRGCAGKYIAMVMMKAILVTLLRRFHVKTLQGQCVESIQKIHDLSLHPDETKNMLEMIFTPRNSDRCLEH
Procedure: (§1) Aromatase and steroid sulfatase enzymes inhibitions were evaluated in the human chorionic carcinoma cell line JEG-3 which constitutively expresses high amount of aromatase and steroid sulfatase.
For aromatase inhibition assay, JEG-3 cells were seeded into 96-well plates at 35,000 cells/well and maintained in MEM containing supplements. When reaching 80% confluent, the cells were washed once with serum-free MEM, incubated with [1β-^3H] androstenedione (A4, 0.2 μCi/ml) for 1.25 hour in the presence of the test substances added in a concentration series. The product, tritiated water (^3H2O), was separated using 2.5% (w/v) dextran-coated charcoal at 4-8° C. for 2 hours. The supernatant radioactivity was measured by a MicroBeta scintillation counter.
(§2) Experiments are performed in duplicate. The inhibitory concentration of 50% of the enzymatic activity is calculated.

steroid sulfatase = molecular target: T2, steroid sulfatase (Homo sapiens, UniProt P08842); test: Steroid sulfatase (STS) inhibition assay in JEG-3 cells ([6,7-3H] estrone sulfate); type: cell-based; conditions: 1 hour at 37° C., duplicate
T2 construct: JEG-3 which constitutively expresses high amount of aromatase and steroid sulfatase; endogenous in cells; host or cells: JEG-3
T2 sequence (P08842 22-583): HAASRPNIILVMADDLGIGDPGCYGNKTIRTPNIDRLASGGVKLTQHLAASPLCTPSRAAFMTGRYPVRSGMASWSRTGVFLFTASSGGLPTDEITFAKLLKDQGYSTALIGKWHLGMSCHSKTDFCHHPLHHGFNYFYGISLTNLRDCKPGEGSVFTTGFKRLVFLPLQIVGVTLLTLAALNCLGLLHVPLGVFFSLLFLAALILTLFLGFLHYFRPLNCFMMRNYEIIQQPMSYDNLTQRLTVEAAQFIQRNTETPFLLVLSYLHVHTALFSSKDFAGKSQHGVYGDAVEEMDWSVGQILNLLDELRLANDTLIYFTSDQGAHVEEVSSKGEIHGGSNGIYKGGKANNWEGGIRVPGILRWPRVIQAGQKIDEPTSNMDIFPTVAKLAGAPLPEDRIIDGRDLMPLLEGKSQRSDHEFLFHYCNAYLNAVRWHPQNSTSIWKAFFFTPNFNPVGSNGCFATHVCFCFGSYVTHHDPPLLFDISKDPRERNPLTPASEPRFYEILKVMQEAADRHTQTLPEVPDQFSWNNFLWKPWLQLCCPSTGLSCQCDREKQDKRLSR
Procedure: as §1
For STS assay, JEG-3 cells were seeded into 24-well culture plates at 150,000 cells/ml/well and maintained in MEM containing supplements overnight. When reaching 80% confluent, the cells were washed once with serum-free MEM, loaded with 1 ml of substrate mix containing [6,7-3H] Estrone sulfate (E1S, 0.6 μCi/ml) and [4-14C] Estrone (E1, 4 nCi/ml) in the presence of compounds in a concentration series, and incubated for 1 hour at 37° C. The product [3H]E1 was separated from E1S by toluene partition using [4-14C]E1 to monitor extraction procedural losses, and the toluene fraction radioactivity was measured by a MicroBeta scintillation counter.
as §2

IC50 (aromatase) | IC50 (steroid sulfatase) | Structure (SMILES)
21.7 nM | 39.5 nM | N#Cc1ccc(Nn2cnc3cccnc32)nc1-c1ccc(OS(N)(=O)=O)cc1 [Example 46, 4-(6-(3H-Imidazo[4,5-b]pyridin-3-ylamino)-3-cyanopyridin-2-yl)phenyl sulfamate]
5.9 nM | 7.2 nM | N#Cc1ccc(Cn2cnc3ccccc32)cc1-c1ccc(OS(N)(=O)=O)cn1 [Example 30, 6-(5-((1H-Benzo[d]imidazol-1-yl)methyl)-2-cyanophenyl)pyridin-3-yl sulfamate]
3.7 nM | > 60 nM | CN(c1ccc(C#N)c(-c2ccc(OS(N)(=O)=O)cc2)n1)n1cnc2cccnc21 [Example 49, 4-(6-((3H-Imidazo[4,5-b]pyridin-3-yl)(methyl)amino)-3-cyanopyridin-2-yl)phenyl sulfamate]
17.5 nM | 14.6 nM | N#Cc1cnc(Nn2cnc3ccccc32)nc1-c1ccc(OS(N)(=O)=O)cc1 [Example 15, 4-(2-(1H-Benzo[d]imidazol-1-ylamino)-5-cyanopyrimidin-4-yl)phenyl sulfamate]
4.8 nM | 12.1 nM | N#Cc1ccc(Cn2nnc3ccccc32)cc1-c1ccc(OS(N)(=O)=O)cc1 [Example 4, 5′-((1H-Benzo[d][1,2,3]triazol-1-yl)methyl)-2′-cyano-[1,1′-biphenyl]-4-yl sulfamate]
> 60 nM | 18.8 nM | N#Cc1ncc(Nn2cnc3cccnc32)nc1-c1ccc(OS(N)(=O)=O)cc1 [Example 40, 4-(6-(3H-Imidazo[4,5-b]pyridin-3-ylamino)-3-cyanopyrazin-2-yl)phenyl sulfamate]
1.2 nM | 26.4 nM | CSc1cc(-c2cc(Cn3cnc4ccccc43)ccc2C#N)ccc1OS(N)(=O)=O [Example 18, 5′-((1H-Benzo[d]imidazol-1-yl)methyl)-2′-cyano-3-(methylthio)-[1,1′-biphenyl]-4-yl sulfamate]
2.7 nM | 19.1 nM | N#Cc1ncc(Nn2cnc3ccccc32)cc1-c1ccc(OS(N)(=O)=O)cc1 [Example 38, 4-(5-(1H-Benzo[d]imidazol-1-ylamino)-2-cyanopyridin-3-yl)phenyl sulfamate]
37.6 nM | 19.5 nM | N#Cc1ncc(Nn2cnc3ccccc32)nc1-c1ccc(OS(N)(=O)=O)cc1 [Example 32, 4-(6-(1H-Benzo[d]imidazol-1-ylamino)-3-cyanopyrazin-2-yl)phenyl sulfamate]
6.2 nM | 10.7 nM | N#Cc1cnc(Cn2cnc3cccnc32)nc1-c1ccc(OS(N)(=O)=O)cc1 [Example 25, 4-(2-((3H-Imidazo[4,5-b]pyridin-3-yl)methyl)-5-cyanopyrimidin-4-yl)phenyl sulfamate]
9 nM | 17.6 nM | N#Cc1ccc(Cn2cnc3cccnc32)cc1-c1ccc(OS(N)(=O)=O)cn1 [Example 33, 6-(5-((3H-Imidazo[4,5-b]pyridin-3-yl)methyl)-2-cyanophenyl)pyridin-3-yl sulfamate]
5.8 nM | > 60 nM | CN(c1ncc(C#N)c(-c2ccc(OS(N)(=O)=O)cc2)n1)n1cnc2cccnc21 [Example 48, 4-(2-((3H-Imidazo[4,5-b]pyridin-3-yl)(methyl)amino)-5-cyanopyrimidin-4-yl)phenyl sulfamate]
1.2 nM | 18.4 nM | N#Cc1ccc(Nn2nnc3ccccc32)cc1-c1ccc(OS(N)(=O)=O)cc1 [Example 11, 5′-(1H-Benzo[d][1,2,3]triazol-1-ylamino)-2′-cyanobiphenyl-4-yl sulfamate]
6.5 nM | 7.1 nM | CN(c1ccc(C#N)c(-c2ccc(OS(N)(=O)=O)cc2)n1)n1cnc2ccccc21 [Example 23, 4-(6-((1H-Benzo[d]imidazol-1-yl)(methyl)amino)-3-cyanopyridin-2-yl)phenyl sulfamate]
2.9 nM | 52.3 nM | CSc1cc(-c2cc(Nn3cnc4ccccc43)ccc2C#N)ccc1OS(N)(=O)=O [Example 20, 5′-((1H-Benzo[d]imidazol-1-yl)amino)-2′-cyano-3-(methylthio)-[1,1′-biphenyl]-4-yl sulfamate]
53.2 nM | > 60 nM | N#Cc1ccc(N(CC2CC2)n2cnc3ccccc32)cc1-c1ccc(OS(N)(=O)=O)cc1 [Example 6, 5′-((1H-Benzo[d]imidazol-1-yl)(cyclopropylmethyl)amino)-2′-cyano-[1,1′-biphenyl]-4-yl sulfamate]
2.2 nM | > 60 nM | CSc1ccc(-c2cc(Nn3cnc4ccccc43)ccc2C#N)cc1OS(N)(=O)=O [Example 21, 5′-((1H-Benzo[d]imidazol-1-yl)amino)-2′-cyano-4-(methylthio)-[1,1′-biphenyl]-3-yl sulfamate]
16.3 nM | > 60 nM | N#Cc1ncc(Cn2cnc3cccnc32)cc1-c1ccc(OS(N)(=O)=O)cc1 [Example 50, 4-(5-((3H-imidazo[4,5-b]pyridin-3-yl)methyl)-2-cyanopyridin-3-yl)phenyl sulfamate]
1.5 nM | > 60 nM | CN(c1cnc(C#N)c(-c2ccc(OS(N)(=O)=O)cc2)c1)n1cnc2ccccc21 [Example 39, 4-(5-((1H-Benzo[d]imidazol-1-yl)(methyl)amino)-2-cyanopyridin-3-yl)phenyl sulfamate]
13.1 nM | > 60 nM | CN(c1ccc(C#N)c(-c2ccc(OS(N)(=O)=O)cc2)c1)n1nnc2ccccc21 [Example 13, 5′-((1H-Benzo[d][1,2,3]triazol-1-yl)(methyl)amino)-2′-cyanobiphenyl-4-yl sulfamate]
1.2 nM | 2 nM | N#Cc1ccc(Cn2cnc3ccccc32)cc1-c1ccc(OS(N)(=O)=O)cc1 [Example 1, 5′-((1H-Benzo[d]imidazol-1-yl)methyl)-2′-cyano-[1,1′-biphenyl]-4-yl sulfamate]
2.2 nM | 15.5 nM | N#Cc1ncc(Cn2cnc3cc(F)c(F)cc32)cc1-c1ccc(OS(N)(=O)=O)cc1 [Example 51, 4-(2-Cyano-5-((5,6-difluoro-1H-benzo[d]imidazol-1-yl)methyl)pyridin-3-yl)phenyl sulfamate]
2.2 nM | > 60 nM | CSc1ccc(-c2cc(Cn3cnc4ccccc43)ccc2C#N)cc1OS(N)(=O)=O [Example 19, 5′-((1H-benzo[d]imidazol-1-yl)methyl)-2′-cyano-4-(methylthio)-[1,1′-biphenyl]-3-yl sulfamate]
> 60 nM | 18.9 nM | Cc1nc2ccccc2n1Cc1ccc(C#N)c(-c2ccc(OS(N)(=O)=O)cc2)c1 [Example 3, 2′-Cyano-5′-((2-methyl-1H-benzo[d]imidazol-1-yl)methyl)biphenyl-4-yl sulfamate]
56.1 nM | 44.1 nM | N#Cc1cnc(Nn2cnc3cccnc32)nc1-c1ccc(OS(N)(=O)=O)cc1 [Example 47, 4-(2-(3H-Imidazo[4,5-b]pyridin-3-ylamino)-5-cyanopyrimidin-4-yl)phenyl sulfamate]
2.5 nM | 37.6 nM | CN(c1cc(-c2ccc(OS(N)(=O)=O)cc2)c(C#N)cn1)n1cnc2ccccc21 [Example 29, 4-(2-((1H-Benzo[d]imidazol-1-yl)(methyl)amino)-5-cyanopyridin-4-yl)phenyl sulfamate]
6.3 nM | 23.6 nM | N#Cc1ccc(Cn2nnc3cccnc32)cc1-c1ccc(OS(N)(=O)=O)cc1 [Example 8, 5′-((3H-[1,2,3]Triazolo[4,5-b]pyridin-3-yl)methyl)-2′-cyano-[1,1′-biphenyl]-4-yl sulfamate]
